Results: PMC7940609, “Hyperproduction of 3-hydroxypropionate by Halomonas bluephagenesis” (Nature Communications, 2021)

How the values were obtained:
DhaTKp = biological target: T1, DhaTKp (Klebsiella pneumoniae, UniProt Q7WRJ3); assay: specific activity, NADH formation; type: biochemical; details: 150 mM 1,3-propanediol, 2 mM NAD+, 100 mM potassium carbonate pH 9.0, 30 mM ammonium sulfate, 37 °C
T1 construct: gene dhaT; C-terminal His-tag (plasmid p95), expressed in and purified from H. bluephagenesis TDΔdddA
T1 sequence (Q7WRJ3 1-387): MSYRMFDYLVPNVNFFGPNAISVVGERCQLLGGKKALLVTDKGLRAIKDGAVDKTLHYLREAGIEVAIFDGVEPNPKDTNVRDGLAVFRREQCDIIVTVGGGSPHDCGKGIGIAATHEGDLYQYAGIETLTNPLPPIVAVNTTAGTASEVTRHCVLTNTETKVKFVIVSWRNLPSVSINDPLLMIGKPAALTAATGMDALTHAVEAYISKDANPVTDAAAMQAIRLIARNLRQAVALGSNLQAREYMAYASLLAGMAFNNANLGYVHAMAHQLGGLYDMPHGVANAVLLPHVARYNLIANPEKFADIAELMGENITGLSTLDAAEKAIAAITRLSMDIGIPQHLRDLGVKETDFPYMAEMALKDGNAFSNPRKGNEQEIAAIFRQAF

DhaTPp = biological target: T2, DhaTPp (Pseudomonas putida, UniProt Q88J46); assay: specific activity, NADH formation; type: biochemical; details: 150 mM 1,3-propanediol, 2 mM NAD+, 100 mM potassium carbonate pH 9.0, 30 mM ammonium sulfate, 37 °C
T2 construct: gene dhaT; C-terminal His-tag (plasmid p92), expressed in and purified from H. bluephagenesis TDΔdddA
T2 sequence (Q88J46 1-394): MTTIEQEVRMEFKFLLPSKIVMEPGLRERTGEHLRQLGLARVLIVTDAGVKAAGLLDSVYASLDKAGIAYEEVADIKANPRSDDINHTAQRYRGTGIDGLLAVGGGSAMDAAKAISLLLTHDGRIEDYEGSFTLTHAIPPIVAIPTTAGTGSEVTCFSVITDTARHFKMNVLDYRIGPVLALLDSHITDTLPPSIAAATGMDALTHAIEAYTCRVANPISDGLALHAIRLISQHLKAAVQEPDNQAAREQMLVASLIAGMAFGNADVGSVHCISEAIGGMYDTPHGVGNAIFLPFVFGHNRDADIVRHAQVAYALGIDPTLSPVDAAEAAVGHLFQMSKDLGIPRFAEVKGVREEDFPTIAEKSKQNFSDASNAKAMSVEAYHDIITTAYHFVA

AldDPp = biological target: T3, AldDPp (Pseudomonas putida, UniProt Q88QE9); assay: specific activity, NADH formation; type: biochemical; details: 2.0 mM 3HPA, 2.0 mM NAD+, 100 mM potassium phosphate pH 8.0, 1 mM DTT, 37 °C
T3 construct: gene aldB-I; N-terminal His-tag (plasmid p98), expressed in and purified from H. bluephagenesis TDΔdddA
T3 sequence (Q88QE9 1-506): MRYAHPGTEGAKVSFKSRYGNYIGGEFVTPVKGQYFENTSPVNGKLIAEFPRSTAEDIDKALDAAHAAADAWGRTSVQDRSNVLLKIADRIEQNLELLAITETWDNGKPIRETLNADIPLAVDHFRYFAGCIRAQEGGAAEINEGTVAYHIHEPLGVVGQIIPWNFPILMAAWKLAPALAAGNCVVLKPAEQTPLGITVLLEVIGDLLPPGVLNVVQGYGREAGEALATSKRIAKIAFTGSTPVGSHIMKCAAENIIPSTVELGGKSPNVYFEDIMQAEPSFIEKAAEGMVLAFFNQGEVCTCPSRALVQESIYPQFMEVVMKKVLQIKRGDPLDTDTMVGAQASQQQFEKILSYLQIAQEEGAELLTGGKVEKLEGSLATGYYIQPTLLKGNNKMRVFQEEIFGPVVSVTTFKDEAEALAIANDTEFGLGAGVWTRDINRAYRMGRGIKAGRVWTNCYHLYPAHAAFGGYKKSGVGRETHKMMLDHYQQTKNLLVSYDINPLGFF

AldH = biological target: T4, AldH (Escherichia coli, UniProt P23883); assay: specific activity, NADH formation; type: biochemical; details: 2.0 mM 3HPA, 2.0 mM NAD+, 100 mM potassium phosphate pH 8.0, 1 mM DTT, 37 °C
T4 construct: gene puuC; N-terminal His-tag (plasmid p99), expressed in and purified from H. bluephagenesis TDΔdddA
T4 sequence (P23883 1-495): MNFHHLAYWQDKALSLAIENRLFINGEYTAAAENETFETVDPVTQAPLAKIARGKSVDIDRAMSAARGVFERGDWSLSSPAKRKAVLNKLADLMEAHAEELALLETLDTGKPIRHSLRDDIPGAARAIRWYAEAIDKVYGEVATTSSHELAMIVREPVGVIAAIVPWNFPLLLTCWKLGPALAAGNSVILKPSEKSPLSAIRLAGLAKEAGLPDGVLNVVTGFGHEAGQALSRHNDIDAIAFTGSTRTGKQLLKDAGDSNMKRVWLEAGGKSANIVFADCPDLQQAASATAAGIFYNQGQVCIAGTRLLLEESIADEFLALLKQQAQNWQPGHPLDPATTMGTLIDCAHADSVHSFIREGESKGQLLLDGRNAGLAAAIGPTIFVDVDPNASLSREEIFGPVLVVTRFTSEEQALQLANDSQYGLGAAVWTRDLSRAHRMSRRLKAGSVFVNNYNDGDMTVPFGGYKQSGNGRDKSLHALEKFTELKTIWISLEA

PuuC = biological target: T5, PuuC (Klebsiella pneumoniae, UniProt A0A378BL98); assay: specific activity, NADH formation; type: biochemical; details: 2.0 mM 3HPA, 2.0 mM NAD+, 100 mM potassium phosphate pH 8.0, 1 mM DTT, 37 °C
T5 construct: N-terminal His-tag (plasmid p100), expressed in and purified from H. bluephagenesis TDΔdddA
T5 sequence (A0A378BL98 1-495): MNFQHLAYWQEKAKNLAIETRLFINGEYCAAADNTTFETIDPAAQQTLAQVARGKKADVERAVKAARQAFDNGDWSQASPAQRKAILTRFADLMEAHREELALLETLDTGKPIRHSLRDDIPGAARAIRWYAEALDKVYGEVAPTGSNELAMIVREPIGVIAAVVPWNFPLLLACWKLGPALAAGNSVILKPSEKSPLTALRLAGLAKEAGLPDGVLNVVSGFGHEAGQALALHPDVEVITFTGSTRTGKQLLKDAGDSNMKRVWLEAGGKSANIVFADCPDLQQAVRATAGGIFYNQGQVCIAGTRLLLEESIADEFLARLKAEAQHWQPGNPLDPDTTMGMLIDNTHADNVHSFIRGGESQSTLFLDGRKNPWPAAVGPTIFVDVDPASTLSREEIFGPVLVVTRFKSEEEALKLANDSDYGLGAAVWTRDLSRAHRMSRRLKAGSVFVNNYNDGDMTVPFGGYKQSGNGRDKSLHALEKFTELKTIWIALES

purified protein = substrate: O=CCCO; assay: purified protein; type: biochemical, Halomonas sp. TD01; details: 2 mM NAD+, 50 mM potassium phosphate pH 8.0, 1.0 mM DTT, 37 °C

OCCCO [1,3-propanediol]
specific activity, NADH formation (DhaTKp): higher than the alcohol dehydrogenase of P. putida DhaTPp and K. pneumoniae DhaTKp | specific activity, NADH formation (DhaTPp): higher than the alcohol dehydrogenase of P. putida DhaTPp and K. pneumoniae DhaTKp

O=CCCO [3HPA]
specific activity, NADH formation (AldDPp): four different aldehyde dehydrogenases (AldDHb, AldDPp, AldH, and PuuC) were analyzed | specific activity, NADH formation (AldH): four different aldehyde dehydrogenases (AldDHb, AldDPp, AldH, and PuuC) were analyzed | specific activity, NADH formation (PuuC): four different aldehyde dehydrogenases (AldDHb, AldDPp, AldH, and PuuC) were analyzed

B1: AldDHb (Halomonas sp. TD01) (protein)
chain: MIYANPGDAGSVVSFEKRFGNYIGGEFVPPVNGQYFDNISPVNGQVFCEIPRSSAEDIEKALDAAHKAAPAWGKTSVQERSNILLKIADRLEQNLEMLAVAETWDNGKAVRETLNADIPLAVDHFRYFAGCLRSQEGTAADIDANTVAYHFHEPLGVVGQIIPWNFPILMAAWKLGPALAAGNCVILKPAEQTPASILKVMEVIGDLLPPGVLNVVNGFGAEAGQALATSKRIAKIAFTGSTPVGSHILKCAAENIIPSTVELGGKSPNIYFADIMNAEPTFIDKAVEGLVLAFFNQGEVCTCPSRALIQESMYDEFMAKVVERTKTIKRGNPLDTDVQVGAQASQEQFDKIMSYMDIARDEGAEFLAGGDKESLDDSINGGYYIQPTLLKGNNKMRVFQEEIFGPVVAVTTFKDEEEALAIANDTEFGLGAGVWSRDINVAFRMGRGIQAGRVWTNCYHQYPAHAAFGGYKKSGVGRETHKVALEHYQQTKNLLVSYDINPLGFF
notes: 506 residues, C-terminal His-tag (plasmid p91), expressed in and purified from H. bluephagenesis TDΔdddA
Km (purified protein): 0.05 ± 0.002 mM | kcat (purified protein): 3.38 ± 0.09 s⁻¹ | kcat/Km (purified protein): 67400 ± 797 M⁻¹ s⁻¹
